Laboratory results published in PMC9532703, “A novel small molecule RK-019 inhibits FGFR2-amplification gastric cancer cell proliferation and induces apoptosis in vitro and in vivo” (Frontiers in Pharmacology, 2022).

Legend:
Assay in all cases: Kinase selectivity panel
Format in all cases: biochemical
DYRK1A(h) = biological target: T1, DYRK1A(h) (Homo sapiens, UniProt Q13627); settings: read-out: Inhibition(%) @ 1 µM RK-019
T1 construct: purchased Eurofins Discovery Services (KinaseProfiler)
Protocol: (§1) Median-inhibitory concentration (IC50) and inhibition ratio of kinases by RK-019 was assessed by Eurofins Discovery Services (Dundee, United Kingdom) using the ATP-site competition binding assay in vitro. Firstly, gradient concentration of RK-019 against FGFRs, including FGFR1, FGFR2, FGFR3, and FGFR4, were tested. IC50 value was calculate by the GraphPad Prism software (v8.4.3, GraphPad Software, California, United States). Then, to measure the selectivity prolife of RK-019, a panel of 422 recombinant human kinases was screened at a concentration of 1 µM RK-019. Kinase MAP was drawn by webtools from Cell Signaling Technology, Inc. (www.cellsignal.com).

FAK(h) = biological target: T2, FAK(h) (Homo sapiens, UniProt Q05397); settings: read-out: Inhibition(%) @ 1 µM RK-019
T2 construct: purchased Eurofins Discovery Services (KinaseProfiler)
Protocol: as §1

MKK4(m) = biological target: T3, MKK4(m) (Mus musculus, UniProt P47809); settings: read-out: Inhibition(%) @ 1 µM RK-019
T3 construct: purchased Eurofins Discovery Services (KinaseProfiler)
Protocol: as §1

PI3KC2a(h) = biological target: T4, PI3KC2a(h) (Homo sapiens, UniProt O00443); settings: read-out: Inhibition(%) @ 1 µM RK-019
T4 construct: purchased Eurofins Discovery Services (KinaseProfiler)
Protocol: as §1

GSK3β(h) = biological target: T5, GSK3β(h) (Homo sapiens, UniProt P49841); settings: read-out: Inhibition(%) @ 1 µM RK-019
T5 construct: purchased Eurofins Discovery Services (KinaseProfiler)
Protocol: as §1

Haspin(h) = biological target: T6, Haspin(h) (Homo sapiens, UniProt Q8TF76); settings: read-out: Inhibition(%) @ 1 µM RK-019
T6 construct: purchased Eurofins Discovery Services (KinaseProfiler)
Protocol: as §1

PKBβ(h) = biological target: T7, PKBβ(h) (Homo sapiens, UniProt P31751); settings: read-out: Inhibition(%) @ 1 µM RK-019
T7 construct: purchased Eurofins Discovery Services (KinaseProfiler)
Protocol: as §1

ROCK-I(h) = biological target: T8, ROCK-I(h) (Homo sapiens, UniProt Q13464); settings: read-out: Inhibition(%) @ 1 µM RK-019
T8 construct: purchased Eurofins Discovery Services (KinaseProfiler)
Protocol: as §1

CLK1(h) = biological target: T9, CLK1(h) (Homo sapiens, UniProt P49759); settings: read-out: Inhibition(%) @ 1 µM RK-019
T9 construct: purchased Eurofins Discovery Services (KinaseProfiler)
Protocol: as §1

MAP4K3(h) = biological target: T10, MAP4K3(h) (Homo sapiens, UniProt Q8IVH8); settings: read-out: Inhibition(%) @ 1 µM RK-019
T10 construct: purchased Eurofins Discovery Services (KinaseProfiler)
Protocol: as §1

Abl(m) = biological target: T11, Abl(m) (Mus musculus, UniProt P00520); settings: read-out: Inhibition(%) @ 1 µM RK-019
T11 construct: purchased Eurofins Discovery Services (KinaseProfiler)
Protocol: as §1

CDK6/cyclinD3(h) = biological target: T12, CDK6/cyclinD3(h) (Homo sapiens, UniProt Q00534); settings: read-out: Inhibition(%) @ 1 µM RK-019
T12 construct: purchased Eurofins Discovery Services (KinaseProfiler)
Protocol: as §1

EphA5(h) = biological target: T13, EphA5(h) (Homo sapiens, UniProt P54756); settings: read-out: Inhibition(%) @ 1 µM RK-019
T13 construct: purchased Eurofins Discovery Services (KinaseProfiler)
Protocol: as §1

CK1γ3(h) = biological target: T14, CK1γ3(h) (Homo sapiens, UniProt Q9Y6M4); settings: read-out: Inhibition(%) @ 1 µM RK-019
T14 construct: purchased Eurofins Discovery Services (KinaseProfiler)
Protocol: as §1

Flt3(D835Y)(h) = biological target: T15, Flt3(D835Y)(h) (Homo sapiens, UniProt P36888, D835Y); settings: read-out: Inhibition(%) @ 1 µM RK-019
T15 construct: purchased Eurofins Discovery Services (KinaseProfiler)
Protocol: as §1

DNA-PK(h) = biological target: T16, DNA-PK(h) (Homo sapiens, UniProt P78527); settings: read-out: Inhibition(%) @ 1 µM RK-019
T16 construct: purchased Eurofins Discovery Services (KinaseProfiler)
Protocol: as §1

CaMKK1(h) = biological target: T17, CaMKK1(h) (Homo sapiens, UniProt Q8N5S9); settings: read-out: Inhibition(%) @ 1 µM RK-019
T17 construct: purchased Eurofins Discovery Services (KinaseProfiler)
Protocol: as §1

PKAcβ(h) = biological target: T18, PKAcβ(h) (Homo sapiens, UniProt P22694); settings: read-out: Inhibition(%) @ 1 µM RK-019
T18 construct: purchased Eurofins Discovery Services (KinaseProfiler)
Protocol: as §1

GRK6(h) = biological target: T19, GRK6(h) (Homo sapiens, UniProt P43250); settings: read-out: Inhibition(%) @ 1 µM RK-019
T19 construct: purchased Eurofins Discovery Services (KinaseProfiler)
Protocol: as §1

MINK(h) = biological target: T20, MINK(h) (Homo sapiens, UniProt Q8N4C8); settings: read-out: Inhibition(%) @ 1 µM RK-019
T20 construct: purchased Eurofins Discovery Services (KinaseProfiler)
Protocol: as §1

GCK(h) = biological target: T21, GCK(h) (Homo sapiens, UniProt Q12851); settings: read-out: Inhibition(%) @ 1 µM RK-019
T21 construct: purchased Eurofins Discovery Services (KinaseProfiler)
Protocol: as §1

[1] = biological target: T22, PI3 Kinase (p110d/p85a)(m) (Mus musculus, UniProt O35904); settings: read-out: Inhibition(%) @ 1 µM RK-019
T22 construct: purchased Eurofins Discovery Services (KinaseProfiler)
Protocol: as §1

Met(D1246N)(h) = biological target: T23, Met(D1246N)(h) (Homo sapiens, UniProt P08581, D1228N); settings: read-out: Inhibition(%) @ 1 µM RK-019
T23 construct: purchased Eurofins Discovery Services (KinaseProfiler)
Protocol: as §1

Flt4(h) = biological target: T24, Flt4(h) (Homo sapiens, UniProt P35916)
T24 construct: purchased Eurofins Discovery Services (KinaseProfiler)
Protocol: as §1

CRIK(h) = biological target: T25, CRIK(h) (Homo sapiens, UniProt O14578); settings: read-out: Inhibition(%) @ 1 µM RK-019
T25 construct: purchased Eurofins Discovery Services (KinaseProfiler)
Protocol: as §1

Ron(h) = biological target: T26, Ron(h) (Homo sapiens, UniProt Q04912); settings: read-out: Inhibition(%) @ 1 µM RK-019
T26 construct: purchased Eurofins Discovery Services (KinaseProfiler)
Protocol: as §1

TAO1(h) = biological target: T27, TAO1(h) (Homo sapiens, UniProt Q7L7X3); settings: read-out: Inhibition(%) @ 1 µM RK-019
T27 construct: purchased Eurofins Discovery Services (KinaseProfiler)
Protocol: as §1

MYO3B(h) = biological target: T28, MYO3B(h) (Homo sapiens, UniProt Q8WXR4); settings: read-out: Inhibition(%) @ 1 µM RK-019
T28 construct: purchased Eurofins Discovery Services (KinaseProfiler)
Protocol: as §1

IGF-1R(h), activated = biological target: T29, IGF-1R(h), activated (Homo sapiens, UniProt P08069); settings: read-out: Inhibition(%) @ 1 µM RK-019
T29 construct: purchased Eurofins Discovery Services (KinaseProfiler)
Protocol: as §1

SGK(h) = biological target: T30, SGK(h) (Homo sapiens, UniProt O00141); settings: read-out: Inhibition(%) @ 1 µM RK-019
T30 construct: purchased Eurofins Discovery Services (KinaseProfiler)
Protocol: as §1

PKCβI(h) = biological target: T31, PKCβI(h) (Homo sapiens, UniProt P05771); settings: read-out: Inhibition(%) @ 1 µM RK-019
T31 construct: purchased Eurofins Discovery Services (KinaseProfiler)
Protocol: as §1

AAK1(h) = biological target: T32, AAK1(h) (Homo sapiens, UniProt Q2M2I8); settings: read-out: Inhibition(%) @ 1 µM RK-019
T32 construct: purchased Eurofins Discovery Services (KinaseProfiler)
Protocol: as §1

DCAMKL3(h) = biological target: T33, DCAMKL3(h) (Homo sapiens, UniProt Q9C098); settings: read-out: Inhibition(%) @ 1 µM RK-019
T33 construct: purchased Eurofins Discovery Services (KinaseProfiler)
Protocol: as §1

CaMKIIδ(h) = biological target: T34, CaMKIIδ(h) (Homo sapiens, UniProt Q13557); settings: read-out: Inhibition(%) @ 1 µM RK-019
T34 construct: purchased Eurofins Discovery Services (KinaseProfiler)
Protocol: as §1

PAR-1Bα(h) = biological target: T35, PAR-1Bα(h) (Homo sapiens, UniProt Q7KZI7); settings: read-out: Inhibition(%) @ 1 µM RK-019
T35 construct: purchased Eurofins Discovery Services (KinaseProfiler)
Protocol: as §1

ZAK(h) = biological target: T36, ZAK(h) (Homo sapiens, UniProt Q9NYL2); settings: read-out: Inhibition(%) @ 1 µM RK-019
T36 construct: purchased Eurofins Discovery Services (KinaseProfiler)
Protocol: as §1

SBK1(h) = biological target: T37, SBK1(h) (Homo sapiens, UniProt Q52WX2); settings: read-out: Inhibition(%) @ 1 µM RK-019
T37 construct: purchased Eurofins Discovery Services (KinaseProfiler)
Protocol: as §1

T24 sequence (P35916 25-1363): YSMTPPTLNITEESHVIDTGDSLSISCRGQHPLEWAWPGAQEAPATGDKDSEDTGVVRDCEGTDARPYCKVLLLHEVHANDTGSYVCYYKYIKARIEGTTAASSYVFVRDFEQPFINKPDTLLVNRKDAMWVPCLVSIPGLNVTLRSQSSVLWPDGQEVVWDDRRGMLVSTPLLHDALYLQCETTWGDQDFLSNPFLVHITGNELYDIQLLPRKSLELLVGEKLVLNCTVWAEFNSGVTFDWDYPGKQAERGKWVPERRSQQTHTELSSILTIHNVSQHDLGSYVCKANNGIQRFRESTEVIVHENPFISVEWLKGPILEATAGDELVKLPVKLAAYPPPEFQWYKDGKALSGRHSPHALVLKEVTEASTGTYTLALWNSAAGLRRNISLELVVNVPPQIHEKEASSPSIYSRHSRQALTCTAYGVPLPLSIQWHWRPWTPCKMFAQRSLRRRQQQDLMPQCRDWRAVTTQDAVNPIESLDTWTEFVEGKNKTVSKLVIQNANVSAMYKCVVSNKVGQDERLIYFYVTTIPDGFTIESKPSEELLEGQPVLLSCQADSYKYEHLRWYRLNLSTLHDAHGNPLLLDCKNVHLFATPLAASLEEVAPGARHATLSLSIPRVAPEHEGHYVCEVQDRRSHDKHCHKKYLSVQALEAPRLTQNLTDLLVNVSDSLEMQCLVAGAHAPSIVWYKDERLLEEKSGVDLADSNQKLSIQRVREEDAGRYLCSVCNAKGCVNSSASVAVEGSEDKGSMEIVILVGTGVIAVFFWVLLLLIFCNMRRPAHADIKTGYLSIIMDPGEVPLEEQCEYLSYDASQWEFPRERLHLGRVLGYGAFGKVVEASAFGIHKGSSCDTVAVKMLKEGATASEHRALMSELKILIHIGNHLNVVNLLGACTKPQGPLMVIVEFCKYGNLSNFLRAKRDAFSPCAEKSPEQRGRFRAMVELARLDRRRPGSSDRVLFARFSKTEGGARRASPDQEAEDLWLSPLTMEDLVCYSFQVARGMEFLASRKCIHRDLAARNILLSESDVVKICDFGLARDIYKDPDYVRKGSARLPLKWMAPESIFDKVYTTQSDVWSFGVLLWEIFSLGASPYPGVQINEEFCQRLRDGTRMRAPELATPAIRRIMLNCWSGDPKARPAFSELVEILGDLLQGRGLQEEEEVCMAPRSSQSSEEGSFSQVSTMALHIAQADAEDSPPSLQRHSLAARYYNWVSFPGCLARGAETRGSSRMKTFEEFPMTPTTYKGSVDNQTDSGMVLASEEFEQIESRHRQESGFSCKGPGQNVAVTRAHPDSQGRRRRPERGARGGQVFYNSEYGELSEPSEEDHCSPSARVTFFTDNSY
T3 sequence (P47809 2-397 limits assumed): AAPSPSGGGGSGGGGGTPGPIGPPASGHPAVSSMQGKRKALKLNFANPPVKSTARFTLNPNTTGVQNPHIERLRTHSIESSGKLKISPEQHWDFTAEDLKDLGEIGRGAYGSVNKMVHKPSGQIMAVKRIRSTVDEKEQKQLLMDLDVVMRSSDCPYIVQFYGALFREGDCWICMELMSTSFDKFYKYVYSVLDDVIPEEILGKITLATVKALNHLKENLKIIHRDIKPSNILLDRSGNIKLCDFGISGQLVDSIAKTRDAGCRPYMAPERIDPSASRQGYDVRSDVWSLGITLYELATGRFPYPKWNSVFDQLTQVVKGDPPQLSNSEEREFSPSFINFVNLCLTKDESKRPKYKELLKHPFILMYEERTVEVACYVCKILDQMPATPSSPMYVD
T36 sequence (Q9NYL2 whole entry): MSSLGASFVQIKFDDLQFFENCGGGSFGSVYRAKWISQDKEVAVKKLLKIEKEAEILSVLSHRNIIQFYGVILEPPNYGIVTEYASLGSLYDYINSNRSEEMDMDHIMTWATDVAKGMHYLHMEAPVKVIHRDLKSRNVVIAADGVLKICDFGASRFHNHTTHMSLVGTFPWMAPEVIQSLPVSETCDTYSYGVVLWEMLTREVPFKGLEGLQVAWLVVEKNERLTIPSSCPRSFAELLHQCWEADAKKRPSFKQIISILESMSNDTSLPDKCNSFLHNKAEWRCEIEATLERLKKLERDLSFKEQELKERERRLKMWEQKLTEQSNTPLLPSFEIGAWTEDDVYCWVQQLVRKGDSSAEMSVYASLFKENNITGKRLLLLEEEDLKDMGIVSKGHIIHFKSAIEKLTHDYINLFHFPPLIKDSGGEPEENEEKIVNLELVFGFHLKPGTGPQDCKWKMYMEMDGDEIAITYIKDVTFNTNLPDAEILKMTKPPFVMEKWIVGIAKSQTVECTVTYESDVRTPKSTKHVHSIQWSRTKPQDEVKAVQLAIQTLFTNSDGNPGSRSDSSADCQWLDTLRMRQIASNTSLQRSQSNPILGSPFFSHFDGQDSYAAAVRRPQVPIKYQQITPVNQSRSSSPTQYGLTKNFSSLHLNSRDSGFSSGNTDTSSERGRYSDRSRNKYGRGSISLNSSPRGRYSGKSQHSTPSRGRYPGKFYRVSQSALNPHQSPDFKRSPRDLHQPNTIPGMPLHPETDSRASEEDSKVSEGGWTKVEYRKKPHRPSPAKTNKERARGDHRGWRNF
T6 sequence (Q8TF76 whole entry): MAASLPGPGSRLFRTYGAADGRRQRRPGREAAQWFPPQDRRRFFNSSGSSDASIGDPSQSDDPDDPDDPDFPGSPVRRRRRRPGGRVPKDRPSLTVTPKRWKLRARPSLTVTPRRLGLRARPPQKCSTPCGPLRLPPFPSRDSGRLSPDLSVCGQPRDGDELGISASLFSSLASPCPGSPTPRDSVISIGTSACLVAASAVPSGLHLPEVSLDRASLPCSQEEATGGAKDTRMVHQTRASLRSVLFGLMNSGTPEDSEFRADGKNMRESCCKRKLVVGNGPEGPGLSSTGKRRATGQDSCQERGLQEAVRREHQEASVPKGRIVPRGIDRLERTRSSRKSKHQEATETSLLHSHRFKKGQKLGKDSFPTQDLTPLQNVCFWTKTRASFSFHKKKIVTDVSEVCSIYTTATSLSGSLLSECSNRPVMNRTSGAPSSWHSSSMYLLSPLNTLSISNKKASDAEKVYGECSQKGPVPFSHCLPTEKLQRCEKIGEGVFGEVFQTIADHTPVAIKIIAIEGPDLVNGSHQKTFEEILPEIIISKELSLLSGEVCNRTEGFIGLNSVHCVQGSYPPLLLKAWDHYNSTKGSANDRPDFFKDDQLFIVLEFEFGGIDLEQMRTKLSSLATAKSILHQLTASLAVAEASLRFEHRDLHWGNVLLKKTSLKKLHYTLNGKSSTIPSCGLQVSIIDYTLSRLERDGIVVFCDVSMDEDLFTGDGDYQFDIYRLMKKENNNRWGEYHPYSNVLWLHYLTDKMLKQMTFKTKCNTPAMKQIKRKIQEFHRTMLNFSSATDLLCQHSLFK
T20 sequence (Q8N4C8 whole entry): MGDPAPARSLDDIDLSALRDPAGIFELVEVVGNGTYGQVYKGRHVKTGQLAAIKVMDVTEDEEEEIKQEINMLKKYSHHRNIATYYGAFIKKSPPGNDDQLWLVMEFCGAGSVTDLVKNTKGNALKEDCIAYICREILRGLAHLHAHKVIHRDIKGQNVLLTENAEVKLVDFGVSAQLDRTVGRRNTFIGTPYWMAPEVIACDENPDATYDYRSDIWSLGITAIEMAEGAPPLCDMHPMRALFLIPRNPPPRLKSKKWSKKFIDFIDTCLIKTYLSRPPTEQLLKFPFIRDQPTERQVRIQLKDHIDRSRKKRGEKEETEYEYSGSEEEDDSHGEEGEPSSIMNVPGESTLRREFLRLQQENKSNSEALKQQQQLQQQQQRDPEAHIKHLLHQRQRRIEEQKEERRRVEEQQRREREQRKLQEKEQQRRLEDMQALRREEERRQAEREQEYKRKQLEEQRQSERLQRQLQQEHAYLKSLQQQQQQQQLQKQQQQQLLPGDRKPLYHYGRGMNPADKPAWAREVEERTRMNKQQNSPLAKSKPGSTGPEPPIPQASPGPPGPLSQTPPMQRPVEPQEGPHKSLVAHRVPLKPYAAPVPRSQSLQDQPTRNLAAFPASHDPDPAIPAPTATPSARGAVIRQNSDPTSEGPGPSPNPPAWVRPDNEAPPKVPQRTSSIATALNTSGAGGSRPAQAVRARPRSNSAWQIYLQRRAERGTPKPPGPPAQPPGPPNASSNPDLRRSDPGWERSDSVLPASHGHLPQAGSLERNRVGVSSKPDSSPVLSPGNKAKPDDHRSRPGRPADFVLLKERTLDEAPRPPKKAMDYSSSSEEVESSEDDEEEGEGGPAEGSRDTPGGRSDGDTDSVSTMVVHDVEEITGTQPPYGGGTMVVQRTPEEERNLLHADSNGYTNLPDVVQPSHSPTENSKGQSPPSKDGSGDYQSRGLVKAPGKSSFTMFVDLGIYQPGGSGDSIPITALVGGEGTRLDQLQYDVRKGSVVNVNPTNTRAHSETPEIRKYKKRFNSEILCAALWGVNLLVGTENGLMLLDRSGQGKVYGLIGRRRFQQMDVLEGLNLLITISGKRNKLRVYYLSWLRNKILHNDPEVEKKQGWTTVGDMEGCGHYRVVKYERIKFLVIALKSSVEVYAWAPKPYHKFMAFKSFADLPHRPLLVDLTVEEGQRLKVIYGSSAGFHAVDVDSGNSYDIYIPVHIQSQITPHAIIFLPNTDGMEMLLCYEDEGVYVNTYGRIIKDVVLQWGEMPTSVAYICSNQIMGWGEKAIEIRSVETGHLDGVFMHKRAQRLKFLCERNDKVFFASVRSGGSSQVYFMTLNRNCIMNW
T37 sequence (Q52WX2 whole entry): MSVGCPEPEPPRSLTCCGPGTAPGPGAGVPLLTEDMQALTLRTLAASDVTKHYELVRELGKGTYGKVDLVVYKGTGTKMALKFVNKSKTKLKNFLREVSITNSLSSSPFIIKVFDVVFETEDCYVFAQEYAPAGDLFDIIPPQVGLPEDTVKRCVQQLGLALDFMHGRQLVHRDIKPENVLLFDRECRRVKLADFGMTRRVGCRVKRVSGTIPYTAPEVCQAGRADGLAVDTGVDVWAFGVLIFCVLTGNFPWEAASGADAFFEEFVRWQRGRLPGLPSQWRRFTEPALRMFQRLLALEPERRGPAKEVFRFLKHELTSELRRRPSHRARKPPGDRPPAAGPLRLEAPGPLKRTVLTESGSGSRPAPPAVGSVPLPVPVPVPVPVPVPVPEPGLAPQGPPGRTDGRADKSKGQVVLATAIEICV

COc1cc(OC)cc(N(CCN[C@H](C)CO)c2ccc3ncc(-c4cnn(C)c4)c(=O)n3c2)c1 [RK-019, (R)-7-((3,5-dimethoxyphenyl) (2-((1-hydroxypropan-2-yl)amino)ethyl)amino)-3-(1-methyl-1H-pyrazol-4-yl)-4H-pyrido [1,2-a]pyrimidin-4-one]
activity at 1 µM (DYRK1A(h)): 101% | activity at 1 µM (FAK(h)): 105% | activity at 1 µM (MKK4(m)): 107% | activity at 1 µM (PI3KC2a(h)): 104% | activity at 1 µM (GSK3β(h)): 96% | activity at 1 µM (Haspin(h)): 105% | activity at 1 µM (PKBβ(h)): 84% | activity at 1 µM (ROCK-I(h)): 101% | activity at 1 µM (CLK1(h)): 104% | activity at 1 µM (MAP4K3(h)): 132% | activity at 1 µM (Abl(m)): 17% | activity at 1 µM (CDK6/cyclinD3(h)): 106% | activity at 1 µM (EphA5(h)): 45% | activity at 1 µM (CK1γ3(h)): 87% | activity at 1 µM (Flt3(D835Y)(h)): 86% | activity at 1 µM (DNA-PK(h)): 101% | activity at 1 µM (CaMKK1(h)): 105% | activity at 1 µM (PKAcβ(h)): 98% | activity at 1 µM (GRK6(h)): 114% | activity at 1 µM (MINK(h)): 133% | activity at 1 µM (GCK(h)): 98% | activity at 1 µM [1]: 98% | activity at 1 µM (Met(D1246N)(h)): 89% | inhibition at 1 µM (Flt4(h); FLT4, 1 µM, read-out: inhibition (hit in panel)): > 90% | activity at 1 µM (Flt4(h); Flt4(h), read-out: Inhibition(%) @ 1 µM RK-019): 3% | activity at 1 µM (CRIK(h)): 117% | activity at 1 µM (Ron(h)): 124% | activity at 1 µM (TAO1(h)): 115% | activity at 1 µM (MYO3B(h)): 106% | activity at 1 µM (IGF-1R(h), activated): 101% | activity at 1 µM (SGK(h)): 104% | activity at 1 µM (PKCβI(h)): 102% | activity at 1 µM (AAK1(h)): 91% | activity at 1 µM (DCAMKL3(h)): 127% | activity at 1 µM (CaMKIIδ(h)): 108% | activity at 1 µM (PAR-1Bα(h)): 92% | activity at 1 µM (ZAK(h)): 80% | activity at 1 µM (SBK1(h)): 96%
